From patent US20210186943A1, “OTIC FORMULATIONS FOR DRUG-INDUCED OTOTOXICITY” (OTONOMY, INC., priority 2018, published 2021)
Where two headings read alike, the source gives them in different places.

What was measured:
[1] = tested on: spiral ganglion neurons (SGNs); test: Protection of spiral ganglion neurons from cisplatin-induced degeneration in cochlear explant model (Example B10); type: cell-based; conditions: 1.5 hour pretreatment followed by co-treatment with 10 μM cisplatin
Experimental: (§1) Protective effects of various otoprotectant molecules on cisplatin-induced degeneration of hair cells and spiral ganglion neurons were measured. FIGS. 19 and 20 show the quantified percent protection (normalized to naïve) graphs for outer hair cells (OHCs) and spiral ganglion neurons (SGNs).

[2] = tested on: outer hair cells (OHCs); test: Protection of outer hair cells from cisplatin-induced degeneration in cochlear explant model (Example B10); type: cell-based; conditions: 1.5 hour pretreatment followed by co-treatment with 10 μM cisplatin
Experimental: as §1

[3] = tested on: cochlear hair cells; test: Effect of solvents on cisplatin-induced hair cell toxicity in cochlear explants; type: cell-based, Sprague Dawley rat; conditions: for Affect Cisplatin Toxicity: cisplatin exposed explants; for effect on cisplatin-induced hair cell toxicity: summary of Table M
Experimental: (§2) P2-P4 Sprague Dawley rat pups were used for all experiments.
(§3) Day 0: Dissected whole cochleae were mounted onto Cell-Tak-coated mesh inserts and incubated overnight in growth medium.
(§4) Day 3-4: Cochlea were fixed in 4% PFA overnight then immunohistochemically processed with the following: anti-MyoVIIa (1:500), anti-Neurofilament (1:500), Phalloidin (1:250), and DAPI (1:1000).
(§5) Z-stacks of the entire cochlea were imaged at 20x and stitched together using Zeiss Zen Black software. […] Healthy HCs and SGN fibers were counted within each box using Zeiss Zen Blue software. Error bars represent ±s.e.m. unless otherwise indicated.

[4] = tested on: cochlear hair cells
Experimental: as §2, §3, §4, §5

[5] = tested on: dissociated strial cells; test: Caspase-Glo 3/7 caspase activation in dissociated strial cultures (Example B7); type: cell-based, Sprague Dawley rat; conditions: 0.5% DMSO vs 0% DMSO
Experimental: Post cochlear dissection, Reissner's membrane and the lateral wall were gently separated from the basilar membrane with fine forceps. The stria vascularis was then pulled off the lateral wall and collected separately. Cells were then dissociated using a pipette post-trypsinization and seeded onto Poly-d-lysine-coated 96-well plates. Cells were grown for 48-72 hours to achieve 80-90% confluency before treatment. […] Following treatment, cells were exposed to the Caspase-Glo 3/7 (Promega) reagent for 30 minutes then […] was read on a plate reader.
The dissociated strial cells were mostly comprised of marginal cells by 24 hours in vitro.

[6] = tested on: guinea pigs; test: Acute cisplatin-induced hearing loss (CIHL) model, ABR threshold shift; type: in vivo, guinea pig; conditions: single IT SP-600125 (20 mg/ml) in P407 24 hours prior to cisplatin IP 12 mg/kg; 7 days post-treatment; 4, 8, 16 kHz; vs IT P407 vehicle
Experimental: SP-600125 (20 mg/ml) in P407: 205.4 g of DI water were weighed. 1.1342 g of sodium chloride (Fisher Scientific) and 1.53 g of tromethamine (Fisher Scientific) were added. Solid materials were dissolved and the pH of the solution was adjusted to 7.8 with approximately 1.9 mL of 5 N HCl. 126.2 g of buffer was weighed and chilled down and 24.5 g of Poloxamer 407 (Lutrol F127, BASF) were added (e.g., sprinkled) while mixing to dissolve. The approximately 16% poloxamer solution was sterile filtered with a 0.22 μm PVDF 33 mm syringe filter. 207 mg of milled SP600125 (LC laboratories) was added, followed by […] of sterile filtered 16% Poloxamer 407 solution. The solution was then transferred to 3 mL autoclaved vials.
Female albino guinea pigs […] (n=6 per group) of approximately 6-8 weeks of age served as subjects for the experiments. […]
Auditory Brainstem Response (ABR) assessment—During the procedure, additional anesthetic was administered if needed to maintain the depth of anesthesia sufficient to insure immobilization and relaxation. ABRs were recorded in an electrically and acoustically shielded chamber, one ear at a time. […] Acoustic calibration was performed with TDT software (SigCal) and thresholds were expressed as dB SPL in conditions identical to that of threshold recordings in animals. […]
ABR thresholds were determined 7 days post-treatment at 3 frequencies (4, 8, and 16 kHz).

[7] = tested on: cochlear hair cells; test: Cisplatin-induced hair cell damage in ex vivo cochlear explants; type: cell-based, Sprague Dawley rat; design: dose or concentration left out as unconfirmed; conditions: various cisplatin concentrations, 48 or 72 hours
From the text: (§6) Error bars represent ±s.e.m. unless otherwise indicated.

[8] = tested on: strial cells; test: Caspase 3/7 activation in dissociated strial cultures with cisplatin and antioxidants (Example B8); type: cell-based, Sprague-Dawley rat; conditions: cisplatin alone
From the text: Neonatal (P2-P4) Sprague-Dawley rats were used for the experiments described here. Animals were euthanized following anesthesia using isoflurane. Rat cochleae were then dissected in cold HBSS medium enriched with glucose.
Following cochlear dissection, Reissner's membrane and the lateral wall were separated and the stria vascularis was then removed from the lateral wall. Strial cells were then dissociated, seeded onto Poly-d-lysine coated 96 well plates and grown to achieve 80-90% confluency before treatment. […] After incubation, cells were lysed using the Promega caspase 3/7 Glo kit and the intensity of caspase 3/7 were read using Perkin-Elmer Enspire plate reader.
At this stage, cells also began to show formation of vessels (Laminin staining).

[9] = tested on: spiral ganglion neurons (SGNs); test: Cisplatin-induced spiral ganglion neuron damage in ex vivo cochlear explants; type: cell-based, Sprague Dawley rat; design: SGN fiber density (SGNs per 200 μm): dose or concentration left out as unconfirmed
From the text: as §6

Nc1nc2nc[nH]c2c(=S)[nH]1 [6-thioguanine]
percent protection (normalized to naïve) of spiral ganglion neurons [1]: complete protection
percent protection (normalized to naïve) of outer hair cells [2]: almost complete protection

CC(C)=O [Acetone]
Affect Cisplatin Toxicity ([3]; solvent concentration 1%): No
Affect Cisplatin Toxicity ([3]; solvent concentration 2%): No
HC Toxicity ([4]; solvent concentration 1%, cochlear explants): No
HC Toxicity ([4]; solvent concentration 2%, cochlear explants): No
toxicity on naive cochlear explants ([4]; summary of Table M, all tested concentrations): no evident toxicity

CC#N [Acetonitrile]
Affect Cisplatin Toxicity ([3]; solvent concentration 3%): No
HC Toxicity ([4]; solvent concentration 3%, cochlear explants): Slight

O=C(OCc1ccccc1)c1ccccc1 [Benzyl benzoate]
Affect Cisplatin Toxicity ([3]; solvent concentration 0.5%): No
Affect Cisplatin Toxicity ([3]; solvent concentration 1%): No
HC Toxicity [4]: No
toxicity on naive cochlear explants [4]: no evident toxicity

C[S+](C)[O-] [DMSO, dimethyl sulfoxide]
Affect Cisplatin Toxicity ([3]; solvent concentration 0.1%): Yes-Protection
Affect Cisplatin Toxicity ([3]; solvent concentration 0.5%): Yes-Protection
Affect Cisplatin Toxicity ([3]; solvent concentration 1%): Yes-Protection
effect on cisplatin-induced hair cell toxicity [3]: reduced cisplatin-induced hair cell toxicity
HC Toxicity [4]: No
toxicity on naive cochlear explants [4]: no evident toxicity
effect on cisplatin-induced caspase activation (relative light units) [5]: reduced cisplatin-induced caspase activation

CCO [Ethanol]
Affect Cisplatin Toxicity ([3]; solvent concentration 1%): No
Affect Cisplatin Toxicity ([3]; solvent concentration 2%): No
Affect Cisplatin Toxicity ([3]; solvent concentration 2.5%): No
HC Toxicity [4]: No
toxicity on naive cochlear explants [4]: no evident toxicity

CN1CCCC1=O [N-Methyl-2-pyrrolidone]
HC Toxicity [4]: Yes

O=C1c2ccccc2-c2n[nH]c3cccc1c23 [SP-600125, anthra[1,9-cd]pyrazol-6(2H)-one]
ABR threshold shift [6]: dramatically reduced the ABR threshold shift

N.N.[Cl][Pt][Cl] [cisplatin]
IHCs per 200 μm [7]: decreased in a dose- and exposure time-dependent manner
OHCs per 200 μm [7]: decreased in a dose- and exposure time-dependent manner
caspase 3/7 activation (RLU) [8]: increased caspase 3/7 activation
difference from base to apex in SGN susceptibility to cisplatin ([9]; base, mid, apex regions): No significant difference
SGN fiber density (SGNs per 200 μm) ([9]; varying concentrations of cisplatin, 48 or 72 hours): decreases in a dose dependent manner

PEG400
Affect Cisplatin Toxicity ([3]; solvent concentration 2%): Yes-Protection
effect on cisplatin-induced hair cell toxicity [3]: reduced cisplatin-induced hair cell toxicity
